From patent publication US11504339B2, “Compositions comprising urolithin a and uses thereof in treating kidney injury” (priority 2020, dated 2022)

How the values were obtained:
intracellular NAD = experiment: Intracellular NAD+ measurement in kidney cortex; type: in vivo, mouse; conditions: normalized to total protein
Procedure: Approximately 5 mg of kidney cortex from each mouse was homogenized in cold RIPA buffer. After centrifugation, approximately 50 μL of supernatant was processed in triplicate using Amplite Fluorimetric NAD Assay Kit (AAT Bioquest, Sunnyvale, Calif.) while following manufacturer instructions. Fluorescence at 420/480 nm was measured using the plate reader (Tecan Infinite M200) and NAD concentration determined using a standard curve constructed on the same day of the experiment. Protein concentration of the lysate was determined by the Bradford Assay (Bio-Rad) and served as normalization.

[1] = tested on: NRF2, P53, mitochondrial OXPHOS complexes; experiment: Western blot of kidney cortex; type: in vivo, mouse
Procedure: Approximately 5 mg of kidney cortex from each mouse was homogenized in cold RIPA buffer. After centrifugation, the supernatant was collected and protein concentration was determined using the Bradford assay (Thermo Scientific, Waltham, Mass.). Approximately 30 μg of protein was subjected to denaturing SDS-PAGE. The gel-separated proteins were transferred to a 0.45 μm nitrocellulose membrane, followed by standard Western blot protocol.
Primary antibodies Nrf2 (CAT #MBS2538072, MyBiosource, San Diego, Calif.), P53 (CAT #928, Cell Signaling Technology, Danvers, Mass.), and GAPDH (CAT #2118, Cell Signaling Technology) were diluted at 1:1000, while Total OXPHOS Cocktail (CAT #ab110413, Abcam, Los Angeles, Calif.) was diluted at 1:250. HRP-conjugated secondary antibodies (Thermo Scientific): goat anti-mouse IgG and anti-rabbit igG were diluted at 1:5000. The ECL reagent was used to develop protein signals, and images were captured by the ChemiDoc imaging system (Bio-Rad, Hercules, Calif.).

[2] = tested on: miRs and stress responsive genes; experiment: Real-time PCR of renal cortex (miRs and stress responsive genes); type: in vivo, mouse
Procedure: Approximately 5 mg of kidney cortex was homogenized in Trizol solution. Micro RNA and large RNA were sequentially extracted and purified with E.Z.N.A. Micro RNA Kit (Omega Bio-tek, Norcross, Ga.) following manufacturer instructions. RNA concentrations were determined using the NanoQuant plate reader (Tecan Infinite M200). Reverse transcription for large RNA and miRNA were separately carried out using iScript gDNA Clear cDNA Synthesis Kit (Bio-Rad) and the miScript II RT Kit (Qiagen, Hilden, Germany), respectively. HiSpec Buffer was used in the latter RT reaction to target mature miRNA, and 1 μg of template RNA was used for all RT reactions. The CFX96 Touch Real-Time PCR Detection System (Bio-Rad) was used for qPCR. For gene expression, cDNA was amplified using appropriate primers (see Table 1), along with the iTaq Universal SYBR Green Supermix (Bio-Rad). Primers were pre-designed and validated by Harvard PGA Primerbank.
For miRNA expression, cDNA was amplified using miScript Primer Assays for miR-192-5p and miR-140-5p (Qiagen), along with the miScript SYBR Green PCR Kit (Qiagen). ΔCt values were calculated with β-actin (gene expression) or RNU6 (miRNA) normalization, and fold change of the gene of interest between groups was expressed as 2^−ΔΔCt.

[3] = tested on: CIS-resistant A2780 ovarian cancer cells; experiment: Cell viability of cisplatin-resistant A2780 cells, UA plus CIS; type: cell-based; conditions: alone vs combination at the same concentrations
renal apoptosis = experiment: TUNEL immunofluorescence of kidney sections; type: in vivo, mouse
Text: Kidney sections were deparaffinized in xylene, rehydrated, and washed. After antigen retrieval, tissue sections were stained with fluorescein-labeled terminal deoxynucleotidyl transferase dUTP nick end labeling (TUNEL) kit (Roche, Mannheim, Germany). Slides were mounted using Vectashield Mounting Media containing DAPI (Vector Laboratories, Burlingame, Calif.). Tissue sections were imaged using the EVOS FL fluorescence microscope at 20× original magnification. TUNEL-positive cells from ten fields per kidney section and five sections per group of at least four animals were quantified using the ImageJ software's particle counter by thresholding for green fluorescence.

[4] = CIS control compared to the P2Ns-GA UA and negative control groups
[5] = CIS control compared with the P2Ns-GA UA and negative control groups
[6] = at sacrifice, normalized to U6 snRNA

N.N.[Cl][Pt][Cl] [CIS, Cis-diamminedichloridoplatinum]
intracellular NAD (intracellular NAD): reductions | mitochondrial complexes I, II, III, and IV / deficiencies in oxidative phosphorylation ([1]; Western blot, kidney cortex): marked decreases | renal expression of the NRF2 protein ([1]; compared to the P2Ns-GA UA and negative control groups): significantly higher | renal expression of Mt1 (NRF2-inducible gene) [2, 4]: 8-12 fold | renal expression of Srxn1 (NRF2-inducible gene) [2, 4]: 4-5 fold | renal expression of Txnrd1 (NRF2-inducible gene) [2, 4]: 7-14 fold | renal expression of Atf3 (P53-inducible gene) [2, 5]: 3-4 fold | renal expression of Cdkn1a (P21) (P53-inducible gene) [2, 5]: 7-49 fold | renal expression of Trp53inp1 (SIP) (P53-inducible gene) [2, 5]: 9-12 fold | renal miR-140-5p expression [2, 6]: reductions | renal miR-192-5p expression [2, 6]: reductions | PARP1 expression ([2]; normalized to β-actin): elevated | expression of genes associated with hypoxia (HIF1α, Pgk1) ([2]; normalized to β-actin): decreased expression | cell death / cell viability [3]: failed to cause cell death | renal apoptosis (TUNEL positive cells) (renal apoptosis): increased incidences

O=c1oc2cc(O)ccc2c2ccc(O)cc12 [UA, 3,8-Dihydroxybenzo[c]chromen-6-one]
cell death / cell viability [3]: failed to cause cell death
